1 compound from patent US20230082929A1, “METHODS OF GENERATING AND USING SENESCENT-INDUCED CELLS FOR TREATMENT OF CANCER AND COMPOSITIONS RELATING THERETO” (The Wistar Institute of Anatomy and Biology, priority 2020, published 2023) can be followed below.

In data set [1] the test system is ID8-Defb29/Vegf-a ovarian cancer. The data set is described as follows: In vivo orthotopic syngeneic ID8-Defb29/Vegf-a ovarian cancer mouse model.
Procedure: For orthotopic syngeneic model, luciferase expressing ID8-Defb29/Vegf-a with inducible shHMGB2 cells were pretreated with 2 μM Cisplatin for 48 hours to induce CCFs. 5×10^6 cells were i.p. injected into the peritoneal cavity of C57BL/6 mouse (female, 6-8 weeks old, CRL/NCI) (Zhu et al., 2016). Animals were randomly assigned to different treatment groups (10 mice/group). The mice in control groups were fed with control rodent diet (Fisher Scientific. Cat. No: 14-726-309). For the HMGB2 knockdown groups, mice were fed with Bio-Serv™ Doxycycline Grain-Based Rodent Diet (Fisher Scientific. Cat. No: 14-727-450) to induce HMGB2 knockdown. Tumor progression was monitored twice a week using a Xenogen IVIS Spectrum in vivo bioluminescence imaging system. Images were analyzed using Live Imaging 4.0 software. Tumor-bearing mice were treated by i.p. injection with isotype control IgG or anti-PD-L1 antibody (Bio X Cell, Cat. No: B7-H1, clone 10 F.9G2, 10 mg kg^-1) every 3 days with or without simultaneous TOP1 inhibitor camptothecin treatment (Selleck Cat. No: S1288; 8 mg kg^-1). For survival analysis, the Wistar Institute IACUC guideline was followed in determining the time for ending the survival experiments (tumor burden exceeds 10% of body weight).
Data set [2] addresses T1, TOP1cc (Homo sapiens, UniProt P11387).
T1 sequence (P11387 1-765): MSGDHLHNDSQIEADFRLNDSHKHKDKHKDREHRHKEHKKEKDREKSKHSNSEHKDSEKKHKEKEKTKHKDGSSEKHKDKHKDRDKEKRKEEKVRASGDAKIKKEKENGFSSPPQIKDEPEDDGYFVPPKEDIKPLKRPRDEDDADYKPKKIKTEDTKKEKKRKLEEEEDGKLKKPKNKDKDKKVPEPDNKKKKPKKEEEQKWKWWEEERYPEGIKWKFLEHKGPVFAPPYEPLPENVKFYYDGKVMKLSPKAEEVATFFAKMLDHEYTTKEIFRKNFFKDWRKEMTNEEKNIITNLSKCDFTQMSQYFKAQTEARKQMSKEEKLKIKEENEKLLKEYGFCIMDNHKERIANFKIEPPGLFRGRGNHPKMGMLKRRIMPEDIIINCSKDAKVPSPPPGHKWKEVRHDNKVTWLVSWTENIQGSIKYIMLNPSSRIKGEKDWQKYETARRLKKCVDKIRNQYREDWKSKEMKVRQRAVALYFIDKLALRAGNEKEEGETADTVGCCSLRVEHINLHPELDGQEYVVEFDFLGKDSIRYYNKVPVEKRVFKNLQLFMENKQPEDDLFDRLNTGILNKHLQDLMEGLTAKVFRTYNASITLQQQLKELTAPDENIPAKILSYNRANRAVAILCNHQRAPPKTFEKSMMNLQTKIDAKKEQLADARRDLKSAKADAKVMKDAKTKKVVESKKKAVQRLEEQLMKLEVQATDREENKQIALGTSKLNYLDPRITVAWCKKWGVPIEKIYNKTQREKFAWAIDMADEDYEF
The data set is described as follows: Slot blot analysis of TOP1cc levels in purified CCF of senescent cells. The data set is classed as cell-based. Further details: endogenous in cells; host or cells: IMR90 human fibroblasts (senescent or proliferating, with or without shHMGB2); OVCAR3 (with or without HMGB2 knockout). The settings on record: CCF isolated from HMGB2 knockdown or knockout senescent cells (IMR90, OVCAR3). How it is done: A CCF purification protocol was developed by modifying previous protocols (Shimizu et al., 1996; Ly et al., 2017). Briefly, 500 million senescent cells were collected, resuspended, and incubated in DMEM containing 10 μg/mL cytochalasin B for 30 minutes at 37° C. After wash once with ice-cold PBS, the cell pellet was gently dounce homogenized in ice-cold pre-chilled lysis buffer (10 mM Tris-HCl, 2 mM magnesium acetate, 3 mM CaCl2), 0.32 M sucrose, 0.1 mM EDTA, 1 mM DTT, 0.1% NP-40, 0.15 mM spermine, 0.75 mM spermidine, 10 μg/ml cytochalasin B, pH 8.5, 4° C.) with ten slow strokes of a loose-fitting pestle. Release of nuclei was confirmed by DAPI-staining and microscopy. The homogenate was fixed with 1% formaldehyde for 10 minutes, and mixed well with an equal volume of 1.6M sucrose buffer (10 mM Tris-HCl, 5 mM magnesium acetate, 0.1 mM EDTA, 1 mM DTT, 0.3% BSA, 0.15 mM spermine, 0.75 mM spermidine, pH 8.0, 4° C.). A 10 mL portion of homogenate was layered on the top of sucrose buffer gradient (20 mL and 15 mL containing 1.8M and 1.6M of sucrose, respectively) in a 50 mL tissue culture tube. The tubes were centrifuged at 1200×g for 20 minutes at 4° C. After centrifugation, the upper 3 mL of the gradient was discarded, and the next 15 mL containing CCFs was collected. […] DNA concentration was measured using Nanodrop and 5 μg DNA was used for slot blot analysis.

The test system of data set [3] is cGAS. Put plainly: cGAS localization into CCF by immunofluorescence. The data set is classed as cell-based, human. The conditions noted are these: HMGB2 knockout cells. The method, then:
Cells were fixed with 4% paraformaldehyde (PFA) for 15 mins at room temperature followed by permeabilization with 0.2% Triton X-100 in PBS for 5 min. For DNase I digestion, after fixation and permeabilization, cells were treated with 500 units/mL RNase-Free DNase I (Qiagen, Cat. No: 79254) for one hour at 37° C. After blocking with 1% BSA in PBS, cells were incubated with primary antibody overnight at 4° C. and Alexa-Fluor conjugated secondary antibody (Life Technologies). Fluorescent images were captured using Leica TCS SP5 II scanning confocal microscope.

The test system of data set [4] is 2′3′-cGAMP. Put plainly: 2′3′-cGAMP ELISA in IMR90 cells. Type of data set: cell-based, human. The settings on record: senescent IMR90 cells with HMGB2 knockdown. The method, then: 2′ 3′-cGAMP ELISA Kit (Cayman chemical. Cat. No:501700) was used to analyze the endogenous level of 2′ 3′-cGAMP following the manufacturer's instructions. 1×10^5 IMR90 cells were incubated in 200 μL lysis buffer (ThermoFisher, Cat. No: 78501) on ice for 30 minutes. The 2′ 3′-cGAMP ELISA was performed following the manufacturer's instructions.
On the technique in general: ELISA stands for enzyme-linked immunosorbent assay.

Data set [5] has as its system STING. The data set is described as follows: STING dimerization by immunoblot in IMR90 cells. The data set is classed as cell-based, human. The settings on record: senescent IMR90 cells with HMGB2 knockdown. How it is done: Cells were lysed in 1× sample buffer (2% SDS, 10% glycerol, 0.01% bromophenol blue, 62.5 mM Tris, pH 6.8, and 0.1 M DTT) and heated to 95° C. for 10 min. Protein concentrations were determined using the protein assay dye (Bio-Rad. Cat. No: #5000006) and Nanodrop. An equal amount of total protein was resolved using SDS-PAGE gels and transferred to PVDF membranes at 110 V for 2 hours at 4° C. Membranes were blocked with 5% nonfat milk in TBS containing 0.1% Tween 20 (TBS-T) for 1 hour at room temperature. Membranes were incubated overnight at 4° C. in the primary antibodies in 4% BSA/TBS+0.025% sodium azide. Membranes were washed four times in TBS-T for 5 min at room temperature, after which they were incubated with HRP-conjugated secondary antibodies (Cell Signaling Technology. Cat. No: 7076S, 7074S) for 1 hour at room temperature. After washing four times in TBS-T for 5 min at room temperature, proteins were visualized on film after incubation with SuperSignal West Pico PLUS Chemiluminescent Substrate (Thermo Fisher Scientific. Cat. No: 34580).

Consider `CC[C@@]1(O)C(=O)OCc2c1cc1n(c2=O)Cc2cc3ccccc3nc2-1` [CPT, Camptothecin], for which the “anti-PD-L1 treatment response (tumor growth by luciferase bioluminescence)” value in data set [1] (HMGB2 knockdown tumors, CPT 8 mg kg-1 i.p. with anti-PD-L1 antibody 10 mg kg-1 every 3 days) was “significantly restored the anti-PD-L1 response”. Besides, the “body weight of the treated mice” value in data set [1] (anti-PD-L1 antibody-treated group, during treatment period) is “did not affect the body weight”. Further, in data set [1] (mice bearing HMGB2 knockdown tumors, CPT with anti-PD-L1 antibody), the survival of mice entry was “rescued the survival”. Also, the results for the “TOP1cc levels in CCF” value in data set [2] and in data set [2] (listed as Camptothecin) were “restored the TOP1cc levels” and “Rescue of the decrease in TOP1cc levels”, respectively. In data set [3], the “localization of cGAS and TOP1cc into CCF” value was “rescue of the localization of cGAS and TOP1cc into CCF”. Further, the “2′3′-cGAMP levels” value in data set [4] is “rescued”. Further, in data set [5], the STING dimerization entry is reported as “rescued the suppression of STING dimerization”.
